The results in this text go back to ChEMBL document CHEMBL4371076 (J Med Chem, 2019).

Series [1] is described as follows: Unbound plasma concentration in CD1 mouse model of formalin-induced nociception at 30 mg/kg, po. Format: ADME, organism-based. The following applies: in vivo.
Series [2] has as its system Mus musculus. Briefly: Analgesic activity in CD1 mouse model of formalin-induced nociception assessed as reduction in formalin-evoked paw flinching/licking response during first phase at 30 mg/kg, po pretreated for 30 mins followed by formalin treatment and measured during first 5 mins post formalin injection. The format is functional, organism-based.
The nature of series [3]: Unbound drug level in DRG neurons of CD1 mouse model of formalin-induced nociception at 30 mg/kg, po. The format is ADME, organism-based, DRG neuron. As to conditions: in vivo.
A short description of series [4]: Toxicity in CD1 mouse model of formalin-induced nociception assessed as prostration or sedation at 30 mg/kg, po. Format: organism-based. The following applies: in vivo.
Series [5] is described as follows: Fraction unbound in rat trigeminal ganglia neuron tissue. The format is ADME, tissue-based, Trigeminal ganglion.
A short description of series [6]: Plasma concentration in CD1 mouse model of formalin-induced nociception at 30 mg/kg, po. The following applies: read-out: Cp, in vivo. The format is ADME, organism-based.
The species named for series [7] is Mus musculus. Briefly: Reduction in mechanoreceptor-mediated afferent transmission in mouse sural nerve assessed as decrease in mechanically elicited afferent firing at 10 to 30 uM measured at 20 mins post dose at 1.6 to 980 mN threshold pressure. The format is functional, tissue-based.
The target of series [8] is Sodium channel protein type 3 subunit alpha (Homo sapiens, UniProt Q9NY46). Briefly: Inhibition of human Nav1.3 expressed in HEK293 cells after 600 secs at -60 mV holding potential by ion works barracuda population patch clamp method. The format is cell-based. In general terms: In patch-clamp work, channel activity is measured electrically.
A short description of series [9]: Drug uptake in DRG neurons of CD1 mouse model of formalin-induced nociception at 30 mg/kg, ip. The format is ADME, organism-based, DRG neuron. As to conditions: in vivo, read-out: Drug uptake.

Activity calls are given as the source filed them.

Sequence of Sodium channel protein type 3 subunit alpha (Q9NY46 whole entry): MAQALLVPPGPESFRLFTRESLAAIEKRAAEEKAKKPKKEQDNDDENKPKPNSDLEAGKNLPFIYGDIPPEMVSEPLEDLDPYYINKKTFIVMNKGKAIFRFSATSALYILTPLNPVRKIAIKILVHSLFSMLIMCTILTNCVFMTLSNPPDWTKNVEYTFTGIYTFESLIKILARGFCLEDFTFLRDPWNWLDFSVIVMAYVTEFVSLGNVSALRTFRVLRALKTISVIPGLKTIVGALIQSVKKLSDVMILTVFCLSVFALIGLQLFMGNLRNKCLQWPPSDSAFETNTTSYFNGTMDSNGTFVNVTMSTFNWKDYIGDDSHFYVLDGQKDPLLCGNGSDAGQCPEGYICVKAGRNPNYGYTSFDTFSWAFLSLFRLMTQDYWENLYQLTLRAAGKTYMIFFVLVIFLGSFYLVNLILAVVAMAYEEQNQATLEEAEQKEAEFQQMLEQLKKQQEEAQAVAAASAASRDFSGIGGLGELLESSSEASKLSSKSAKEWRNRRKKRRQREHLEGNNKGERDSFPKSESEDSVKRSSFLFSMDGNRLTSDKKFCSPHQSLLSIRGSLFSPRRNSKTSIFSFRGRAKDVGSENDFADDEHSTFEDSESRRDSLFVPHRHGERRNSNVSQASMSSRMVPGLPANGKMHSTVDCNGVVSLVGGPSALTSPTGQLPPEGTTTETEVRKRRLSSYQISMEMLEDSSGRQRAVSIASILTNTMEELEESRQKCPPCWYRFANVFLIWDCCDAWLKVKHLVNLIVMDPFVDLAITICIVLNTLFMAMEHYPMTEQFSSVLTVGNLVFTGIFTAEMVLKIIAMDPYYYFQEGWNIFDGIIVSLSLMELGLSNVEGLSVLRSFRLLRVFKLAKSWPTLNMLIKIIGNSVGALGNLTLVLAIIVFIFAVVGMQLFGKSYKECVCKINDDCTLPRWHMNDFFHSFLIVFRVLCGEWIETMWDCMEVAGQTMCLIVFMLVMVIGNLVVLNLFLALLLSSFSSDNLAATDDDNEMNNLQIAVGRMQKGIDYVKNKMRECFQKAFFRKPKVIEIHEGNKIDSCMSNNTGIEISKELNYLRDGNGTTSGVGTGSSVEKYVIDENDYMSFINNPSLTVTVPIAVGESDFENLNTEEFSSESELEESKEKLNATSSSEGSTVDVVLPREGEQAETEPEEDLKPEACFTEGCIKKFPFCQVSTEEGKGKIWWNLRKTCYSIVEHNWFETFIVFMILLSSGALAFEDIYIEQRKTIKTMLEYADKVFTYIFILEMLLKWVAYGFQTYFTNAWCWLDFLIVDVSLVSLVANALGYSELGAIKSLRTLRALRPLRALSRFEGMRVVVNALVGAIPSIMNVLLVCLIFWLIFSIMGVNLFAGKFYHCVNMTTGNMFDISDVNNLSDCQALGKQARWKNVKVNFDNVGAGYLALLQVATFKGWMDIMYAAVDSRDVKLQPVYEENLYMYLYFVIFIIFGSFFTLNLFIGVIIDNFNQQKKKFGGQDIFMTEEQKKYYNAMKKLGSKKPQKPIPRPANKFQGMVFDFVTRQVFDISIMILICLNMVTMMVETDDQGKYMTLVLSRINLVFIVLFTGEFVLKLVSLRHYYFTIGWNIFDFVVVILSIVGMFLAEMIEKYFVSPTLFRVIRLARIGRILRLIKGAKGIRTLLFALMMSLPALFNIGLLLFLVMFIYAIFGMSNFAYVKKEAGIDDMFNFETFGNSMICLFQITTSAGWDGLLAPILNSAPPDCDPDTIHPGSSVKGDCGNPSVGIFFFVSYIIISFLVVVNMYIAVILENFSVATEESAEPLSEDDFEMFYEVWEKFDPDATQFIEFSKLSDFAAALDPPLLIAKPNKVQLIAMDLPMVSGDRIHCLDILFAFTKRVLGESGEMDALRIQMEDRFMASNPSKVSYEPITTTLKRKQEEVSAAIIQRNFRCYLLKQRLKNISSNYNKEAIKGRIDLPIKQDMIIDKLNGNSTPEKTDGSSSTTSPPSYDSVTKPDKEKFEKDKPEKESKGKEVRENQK

Consider `CC(C)COc1ccc(-c2cn(C)c3cc(C(=O)NS(C)(=O)=O)c(F)cc23)cn1`, for which the “Cp(f)” value in [1] is reported as 616 nM. The result in series [2] was inactive. For the same molecule, the “Drug uptake(free)” value in [3] is given as 84 nM. In addition, in [4], the Activity result is reported as “Non-Toxic”. In addition, the fraction unbound – broadly, the share of the substance not bound to proteins or other matrix – in series [5] was 0.045. In series [6], the concentration came to 44000 nM.
`CC(C)COc1ncc(-c2cn(C)c3cc(C(=O)NS(C)(=O)=O)ccc23)cc1Cl`: the outcome in series [7] was Active. Moreover, the IC50 (usually the point on the concentration scale where inhibition reaches its midpoint) in series [8] is greater than 30 µM. Further, the concentration in series [9] was 2720 nM.
